Values joined by “and” are separate entries in the source; they are usually repeats but may differ in a detail not shown here. Equal entries are not always repeated.
Key:
[1] = test system: Concanavalin A-stimulated T-lymphocytes; test: Thymidine incorporation by Concanavalin A-stimulated T-lymphocytes; type: cell-based, rat; conditions: ConA-stimulated
Description: The in vitro tests, and their results, are described in detail in Example 1. Briefly, T lymphocytes were obtained from rat spleens. The cells were then stimulated by Concanavalin A (ConA), a mitogen that specifically stimulates T lymphocyte replication, both in control samples and in samples that were also contacted with either FDP or cyclosporine at various concentrations. Cell replication was measured by assaying the uptake of thymidine which had been radiolabelled using tritium, a heavy isotope of hydrogen. Cell viability was measured using a dye, trypan blue; intact and viable cells can exclude trypan blue from their interiors, while damaged or dead cells cannot.
Sprague-Dawley rats (150-200 gm body weight) were euthanized by overdose of ketamine (injected intramuscularly, IM). Their spleens were removed under sterile conditions and placed in a plastic petri dish with Buffered Hanks Solution (BHS). The splenic parenchyma was torn apart with sterile needles and forceps. The solution with the splenic fragments was homogenized with a Teflon pestle in a glass tube. This allowed the cells to be expressed into the solution which was then filtered and placed over Ficoll-Hypaque and centrifuged at 1500 RPM for 20 minutes in order to separate mononuclear cells. The middle layer of cells (containing lymphocytes) was removed and centrifuged at 1000 RPM for 10 min. After removing the supernates, the remaining red blood cells were lysed with 0.83% NH4 Cl solution, and the cells were again centrifuged at 1000 RPM for 2-3 min. The supernate was poured off and the cells were washed twice with BHS and then resuspended in tissue culture media (RPMI-1640 with 10% fetal calf serum). The cells then were adjusted to final concentration of 5×10^6 cells/ml with RPMI-1640 and 10% fetal calf serum.
A tissue culture multi-well plate was used for incubation. All well filling was done under sterile conditions. […] The well volume capacity was 0.35 ml.
Six different dilutions (freshly prepared in sterile water solution from 10% FDP stock solutions) were used--1:10, 1:100, 1:250, 1:500, 1:1000 and 1:10000. […] A few wells were used to measure the stimulation index, and received ConA or RPMI without FDP or Cyclosporine. All combinations were run in triplicate. The wells were labeled and incubated with CO2 at 35° C. for 48 hours.
Each well then received 0.05 ml of tritiated (^3 H) thymidine (1 μCi/0.05 ml). Radiolabelled thymidine is taken up by proliferating lymphocytes, allowing them to be counted using a liquid scintillation counter. After 16 to 20 hours of incubation the samples were harvested onto glass filter paper strips using a multiple automated sample harvester. The paper was allowed to dry 4-5 hours. Paper from each well was placed in scintillation counting vials with 5 ml fluorane (scintillene). […] Significance was assessed by unpaired t-test.

[2] = test system: cardiac allograft (Wistar-Furth donor heart in Lewis rat); test: Intra-abdominal heart transplantation, series 1 (graft survival, rejection grade); type: in vivo
Description: Since unwanted T cell stimulation is known to be a primary factor in causing allograft rejection, the results of the in vitro studies discussed above, showing that FDP can suppress T cell stimulation, led to a series of in vivo tests using heart transplantations in rats. These tests are described in detail in Example 2. Briefly, laboratory rats from a strain known as Lewis rats were used as recipients, while rats from a different strain known as Wistar-Furth were used as heart donors.
In the recipient animals, the native heart was not cut out and replaced by a new heart. […] This model provides a good test to determine whether the body will reject the foreign tissue, yet it avoids the extraordinary difficulties that would arise if the animal's native heart were cut out.
In the first round of tests, four treatment groups and one control group were established. The control group received no FDP. The four treatment groups were injected intravenously with 350 mg/kg of FDP 15 minutes prior to surgery, at a dosage of 350 mg/kg (i.e., 350 mg of FDP per kilogram of body weight). The treatment animals also received a 90 minute infusion of FDP during the operation, at a rate of 10 mg/kg/min. In addition to these "perioperative FDP" injections, the four treatment groups also received:
The animals were examined daily for viability. […] When the transplanted heart reached a level of non-viability, a lethal dose of pentobarbital was given, and the heart was removed, examined microscopically, and graded for rejection using the Stanford grading scale.
If a transplanted heart stopped beating prior to three days postoperatively, that animal was dropped from the study. Rats that died within five days of the operation for unknown causes were also dropped from the study. These deaths were believed to be secondary to sepsis, rather than caused by tissue rejection. Also, one animal in Group 1 died from a suture fracture; this animal was also dropped from the study.
Male Wistar-Furth rats (WF;RT-1^u) and male Lewis rats (Lew;RT-1^1)were obtained from Harlan Sprague-Dawley Animal Laboratories. Lewis rats weighing (200-224 gm) were used as recipients. WF rats weighing (200-224 gm) were used as donors.
The Lewis rats were anesthetized with a mixture of ketamine (100 mg/kg) and xylocaine (5 mg/kg) by intraperitoneal injection (IP) 1 to 2 days prior to transplantation. At this time, PE-90 tubing was placed in the internal jugular vein and brought out through the posterior aspect of the neck. The rats were placed in individual cages to prevent dislodging of the catheter. No limits were placed on water or rat chow.
The transplantation procedure was a modified version of Ono and Lindsey's microvascular technique for intra-abdominal transplantation. WF rats were anesthetized with pentobarbital (50 mg/kg). The chest and abdomen were shaved and prepped with betadine and then placed on a thermostatically controlled operating platform. […] After three minutes, the sternum and anterior chest were separated from the diaphragm and lateral ribs with heavy scissors. The chest cavity was opened and the IVC was ligated using a 5-0 silk ligature. The aorta was then dissected out and cross clamped at the level of the innominate artery. Three cc of cold cardioplegia solution (4° C.) was injected into the aortic root with a 25 gauge needle. The aorta was divided below the clamp. The pulmonary artery was dissected free and divided at its bifurcation. […] The heart was then removed and placed in iced saline with heparin (2 units/ml).
Lewis rats were then anesthetized in a similar fashion. After shaving and prepping the abdomen, a mid-line incision was made. The IVC and the infrarenal aorta were mobilized together. A curved bulldog was then used to cross clamp the vessels. The anastomosis was sewn between the […] and IVC using a 9-0 Ethicon microsurgical suture. The aorta-aorta anastomosis was then performed in a similar end-side fashion. […]

[3] = test system: rat cardiac allograft; test: Intra-abdominal heart transplantation, series 2 (FDP alone and with cyclosporine); type: in vivo; conditions: FDP pre and perioperative only (350 mg/kg IV, infusion 10 mg/kg IV for 90 min); n=5
Description: In a second series of in vivo tests, FDP alone and in conjunction with cyclosporine was tested for its ability to suppress allograft rejection and prolong survival of the transplanted heart. […] Therefore, these tests evaluated FDP in conjunction with sub-optimal doses of CSA.
In these tests, the same procedure as described above was used to transplant hearts into the abdomens of recipient animals. Unlike the earlier tests, the animals also received prophylactic antibiotic treatment following surgery, as well as daily application of Bacitracin ointment of the site of the venous catheter.
The surgical technique used in these tests was exactly the same as described in Example 2, except the animals in this series of tests received prophylactic antibiotic treatment following surgery, and daily application of Bacitracin ointment of the site of the venous catheter.
The animals were divided into the following 6 groups: […]

[4] = test system: ex vivo stored hearts; test: Ex vivo cold ischemic storage and reperfusion of hearts (Langendorf apparatus); set-up: species or system rat
Description: Hearts were harvested from ketamine-anesthetized Sprague Dawley rats (350-450 gm body weight). Prior to harvesting the hearts, 17 randomly chosen rats received an intravenous bolus injection of FDP 450 mg/kg (10%). The hearts were removed, the left atria and aorta were attached to a modified Langendorf apparatus within 3 min, and the hearts were perfused ex vivo for 15 min at 37° C. with Krebs-Henseleit solution to which 0.07 mg/ml of FDP had been added. Rats in the control group (n=21) received an equivalent volume saline injection prior to surgery, and the hearts were perfused for 15 min with Krebs-Henseleit solution containing no FDP. Heart rates, systolic and diastolic pressures, cardiac outputs, and coronary blood flow during this period were measured and recorded.
After the 15 minute perfusion period, the control hearts (n=21) were flushed with cardioplegic solution (Isolyte, K^+ 20 mEq/L). The FDP=treated hearts (n=17) were flushed with the same solution containing 1 mg/cc of FDP. The hearts were respectively placed in cold (4° C.) saline solution, with 0.9% NaCl or 0.9% NaCl containing 1 mg/ml FDP, and stored at 4° C. for 4 hours. After the 4 hour storage period was completed, the hearts were reperfused and warmed to 37° C. again. Seven hearts from each group were taken out of the Langendorf apparatus after 15 minutes and analyzed for myocardial ATP content. The remaining hearts (10 in the treatment group, and 14 in the control group) were measured in various ways (heartbeat rates, mean aortic and systolic pressures, and cardiac output) for 2 hours following the commencement of reperfusion.

[5] = test system: ischemically stored livers; test: Oxygen consumption after hypothermic ischemic storage, liver; set-up: species or system rat; conditions: livers n=12; FDP 1 mg/ml in storage solution; storage 17.62±0.22 hours at 4° C.; measured at 36.4° C.
Description: (§1) Sprague Dawley rats (150-180 gm/body weight) were anesthetized with Ketamine 35 mg/kg. The liver, kidney and heart were excised and placed in 50 ml of a standard cardioplegia solution sold under the trademark ISOLYTE (which contained Na^+ -41 mEq/L, K^+ -16 mEq/L, Ca^++ -5 mEq/L, Mg^++ 3 mEq/L, Cl^- -40 mEq/L, acetate 24 mEq/L with 5% Dextrose), precooled to 4° C. To half of the storage containers, 1 mg/ml of 10% FDP was added; to the rest of the containers, a similar amount of glucose was added. The containers were placed on ice in a refrigerator. After storage for 16 to 20 hours, the organs were weighed and placed in a metabolic chamber for determination of oxygen consumption,using a Clark polarographic electrode. The total volume of the chamber was 10 ml and the composition of the medium was 8 ml phosphate buffered saline (PBS Dulbecco, Mg^++ and Ca^++ free) and 2 cc of Dextrose at a temperature of 36°±0.2° C. The organ was placed in the chamber and 100% oxygen was bubbled for 45 sec. The partial pressure of the dissolved oxygen was usually 480-560 mm Hg. Then the chamber was sealed hermetically, and O2 consumption by the organ was recorded on a strip chart recorder at a speed of 1 cm/min. Initial and final PO2 levels of medium in the chamber were measured on a Radiometer Blood Gas Analyzer Model ABL-4.

[6] = test system: ischemically stored kidneys; test: Oxygen consumption after hypothermic ischemic storage, kidney; set-up: species or system rat; conditions: kidneys n=11; FDP 1 mg/ml in storage solution; 16 to 20 hours storage
Description: as §1

[7] = test system: ischemically stored hearts; test: Oxygen consumption after hypothermic ischemic storage, heart; set-up: species or system rat; conditions: hearts n=4; FDP 1 mg/ml in storage solution; 16 to 20 hours storage
Description: as §1

[8] = Group 1 perioperative FDP, Stanford grading scale

In the case of `O=C(COP(=O)(O)O)[C@@H](O)[C@H](O)[C@H](O)COP(=O)(O)O` [FDP, fructose-1,6-diphosphate], the Thymidine incorporation ([1]; FDP 1:10 dilution of 10% stock) is reported as 136 counts per 2 minute period, the Thymidine incorporation ([1]; FDP 1:100 dilution of 10% stock) is reported as 1175 counts per 2 minute period and the Thymidine incorporation ([1]; FDP 1:250 dilution of 10% stock) is reported as 24818 counts per 2 minute period. The Thymidine incorporation ([1]; FDP 1:500 dilution of 10% stock) was 52481 counts per 2 minute period, the Thymidine incorporation ([1]; FDP 1:1000 dilution of 10% stock) was 62518 counts per 2 minute period and the Thymidine incorporation ([1]; FDP 1:10000 dilution of 10% stock, mean of 13 experiments) was 89032 counts per 2 minute period. The “Mean Survival Time MST ± SE (graft)” value ([2]; Group 1: perioperative FDP (350 mg/kg IV + 10 mg/kg/min 90 min), no supplemental injections) was 13.5 days and 13.5 ± 1.4101 days, the “Rejection Grades: number of hearts graded Moderate” value [2, 8] was 1 and the “Rejection Grades: number of hearts graded Severe/Advanced” value [2, 8] was 8. The “Rejection Grades: number of hearts graded Mild” value ([2]; Group 1 perioperative FDP, Stanford grading scale, N 11, 1 heart not evaluated) was 1, the “Mean Survival Time MST ± SE (graft)” value ([2]; Group 2: perioperative FDP + 350 mg/kg every 12 hours (bid), 350 mg/kg) was 8.9 days and 8.9 ± 0.5154 days and the “Rejection Grades: number of hearts graded Mild” value ([2]; Group 2 FDP bid, N 8) was 1. For the same compound, the “Rejection Grades: number of hearts graded Moderate” value ([2]; Group 2 FDP bid, N 8) was 1, the “Rejection Grades: number of hearts graded Severe/Advanced” value ([2]; Group 2 FDP bid, N 8) was 6 and the “Mean Survival Time MST ± SE (graft)” value ([2]; Group 3: perioperative FDP + 350 mg/kg every 8 hours (tid), 350 mg/kg) was 10 days and 10.0 ± 0.5345 days. The “Rejection Grades: number of hearts graded Moderate” value ([2]; Group 3 FDP tid, N 8) was 1, the “Rejection Grades: number of hearts graded Severe/Advanced” value ([2]; Group 3 FDP tid, N 8) was 7 and the “Mean Survival Time MST ± SE (graft)” value ([2]; Group 4: perioperative FDP + 350 mg/kg every 6 hours (qid), 350 mg/kg) was 9.6 days and 9.4 ± 0.8004 days. For the same compound, the “Rejection Grades: number of hearts graded Severe/Advanced” value ([2]; Group 4 FDP qid, N 8) was 8, the “rejection grades (span in the group)” value ([2]; Group I perioperative FDP, Stanford grading scale) was “mild to severe/advanced” and the “rejection grades (span in the group)” value ([2]; Group II FDP every 12 hours) was “mild to severe/advanced”. For the same compound, the “rejection grades (span in the group)” value ([2]; Group III FDP every 8 hours) was “moderate to severe/advanced”, the “rejection grades (span in the group)” value ([2]; Group IV FDP every 6 hours) was “severe/advanced” and the “MST ± SEM (cardiac allograft survival)” value [3] was 11.4 Days and 11.4 ± 0.74 Days. For the same compound, the “myocardial ATP content vs control group” value ([4]; after 15 min of reperfusion, FIG. 5, p<0.01) was “higher”, the “hearts still showing a heartbeat” value ([4]; after 1 hour and 30 min of reperfusion following 4 h storage at 4° C., n=10, controls 5 of 14) was “all” and the “post-storage heartbeat rate vs control group” value ([4]; after 4 h cold storage, FIG. 1) was “significantly higher”. For the same compound, the “peak systolic aortic pressures vs control group” value ([4]; after 4 h cold storage, FIG. 2) was “significantly higher”, the “mean pressures vs control group” value ([4]; after 4 h cold storage, FIG. 3) was “significantly higher” and the “cardiac output rates vs control group” value ([4]; after 4 h cold storage, FIG. 4) was “significantly higher”. For the same compound, the “oxygen consumption after ischemic storage” value [5] was 76.7±4.4 O2 mmHg/min/gm, the “post-storage O2 consumption” value [6] was 74.15±4.8 mmHg O2 /min/gm and the “post-storage O2 consumption” value [7] was 68.4±3.14 mmHg O2 /min/gm.

— patent US5747461A, “Synergistic administration of cyclosporine and fructose diphosphate” (priority 1994, dated 1998)
